One may read the Kd as a measure of binding affinity in units of concentration. A word on the IC50: it is the concentration needed to halve the response being measured. The low end stands for inhibition by little substance, the high end for a need for much substance.

In experiment [1] the target is T1, pancreatic lipase (Homo sapiens, UniProt P16233).
T1 sequence (P16233 17-465): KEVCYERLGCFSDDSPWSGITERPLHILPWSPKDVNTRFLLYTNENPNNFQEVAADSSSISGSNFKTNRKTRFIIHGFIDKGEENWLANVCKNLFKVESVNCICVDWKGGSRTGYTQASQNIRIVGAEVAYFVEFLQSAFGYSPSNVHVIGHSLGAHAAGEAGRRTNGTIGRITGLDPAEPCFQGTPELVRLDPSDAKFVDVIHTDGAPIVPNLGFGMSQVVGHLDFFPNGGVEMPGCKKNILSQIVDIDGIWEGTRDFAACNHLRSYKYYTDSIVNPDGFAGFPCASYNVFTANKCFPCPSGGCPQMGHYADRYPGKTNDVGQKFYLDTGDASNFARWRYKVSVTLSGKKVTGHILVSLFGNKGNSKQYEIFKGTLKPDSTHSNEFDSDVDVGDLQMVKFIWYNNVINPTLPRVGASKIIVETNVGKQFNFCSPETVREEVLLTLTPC
Briefly: microscale thermophoresis. It counts as binding. In general terms: In MST a laser heats a spot of the sample, and binding alters the fluorescence response.

For experiment [2], the target named is T2, pancreatic lipase (Sus scrofa, UniProt P00591).
T2 sequence (P00591 1-450): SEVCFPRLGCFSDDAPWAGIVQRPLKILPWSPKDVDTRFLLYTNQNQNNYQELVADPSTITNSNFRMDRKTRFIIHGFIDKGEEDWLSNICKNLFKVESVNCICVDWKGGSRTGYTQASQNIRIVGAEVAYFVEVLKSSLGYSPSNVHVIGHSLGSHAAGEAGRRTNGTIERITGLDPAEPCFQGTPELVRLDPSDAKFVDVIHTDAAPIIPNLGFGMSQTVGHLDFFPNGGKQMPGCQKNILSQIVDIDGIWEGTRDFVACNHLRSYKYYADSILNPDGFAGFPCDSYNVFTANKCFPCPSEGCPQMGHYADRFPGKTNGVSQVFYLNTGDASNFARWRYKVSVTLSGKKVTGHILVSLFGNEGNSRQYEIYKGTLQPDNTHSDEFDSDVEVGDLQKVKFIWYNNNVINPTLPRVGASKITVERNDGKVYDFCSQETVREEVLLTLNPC
The experiment in a line: in vitro pancreatic lipase inhibition assay. In kind it is biochemical.

`COc1cc(/C=C/C(=O)CC(=O)/C=C/c2ccc(O)c(OC)c2)ccc1O` [A6, curcumin, reference compound]: at pancreatic lipase [1], the Kd was found to be 23.5 µM.

`O=C(CCc1ccc(O)cc1)CC(=O)CCc1ccc(O)cc1` [C4, 1,7-bis(4-hydroxyphenyl)heptane-3,5-dione] yielded an IC50 at pancreatic lipase [2] of 42.8 µM. Moreover, at pancreatic lipase [1], the Kd stood at 2.91 µM.

At pancreatic lipase [2], `COc1cc(CCC(=O)CC(=O)CCc2ccc(O)c(OC)c2)ccc1O` [C6, 1,7-bis(4-hydroxy-3-methoxyphenyl)heptane-3,5-dione] showed an IC50 of 98.6 µM. The compound also registered a Kd at pancreatic lipase [1] of 18.2 µM.

Values taken from paper PMC11209693 (ACS Omega, 2024).
